In PubChem BioAssay AID2060888 (Molecular Pharmacology Branch, DTP, NCI, 2025):
Blank lines part the entries; values can stand above or below the molecule they belong to.

Tested on: 695427-040-R-J1-PDC complex spheroid viability
Assay: Anticancer human tumor 695427-040-R-J1-PDC patient-derived colon adenocarcinoma cell line growth inhibition [RAS]
Conditions: for IC50: curve of first compound; for viability, T/C: stronger effect = lower value
From the text: RAS pathway inhibitors in Combinations in Complex Spheroids
A high-throughput screen of multi-cell type tumor spheroids was designed to identify active combinations of RAS pathway inhibitors and targeted small molecules. Complex spheroids include a stromal component modeled by human endothelial cells (HUVEC) and fibroblasts modeled by human mesenchymal stem cells (MSCs). The concentration ranges selected for each drug and investigational agent were based upon clinically achievable concentrations if the clinical Cmax of the agent was known.
Compounds. The drugs and investigational agents: abemaciclib (NSC768073), cobimetinib (NSC768068), divarasib (GDC6063, NSC841802), docetaxel (NSC628503), GDC-1971 (RLY-1971, NSC841576), gemcitabine (NSC613327), inavolisib (NSC800729), ipatasertib (NSC767898), KB-0742 (NSC834161), MRTX-1133 (NSC836407), osimertinib (NSC779217), RMC-4630 (NSC839698), RMC-6236 (NSC851965), RMC-6291 (NSC852671), Ro-3306 (NSC812927), sapanisertib (NSC764658), SN-38 (NSC673596), staurosporine (NSC755774), SY5609 (NSC837396), and tovorafenib (DAY101, NSC766906), were obtained from the National Cancer Institute (NCI) Developmental Therapeutics Program Chemical Repository. The FDA-approved anticancer drug set is available from the NCI Developmental Therapeutics Program. […] The stock solutions were prepared in dimethyl sulfoxide (DMSO, Sigma-Aldrich, St. Louis, MO, cat. D2650) at 800-fold the tested concentration and stored at -70 degrees C prior to their use. All drugs and investigational agents were tested over a range starting from a high concentration at or near the clinical Cmax and decreasing in half-log increments. If the clinical Cmax for an agent had not been determined, the highest concentration tested was 10 microM.
Cell Culture. All cells were maintained in an incubator at 37 degrees C and 5% CO2 with 95% humidity. The PDC lines were cultured according to standard operating procedures established by the NCI PDMR. All PDCs were thawed and cultured in Matrigel-coated flasks prepared with a working solution of 1X Ham's F-12 nutrient mix, without supplementation (Invitrogen, Waltham, MA, cat. 11765054), 100 U/mL penicillin-streptomycin (Invitrogen, cat. 15140122), and 2.5% Matrigel (Corning Inc., Corning, NY, cat. 354248) for the first three passages. The 362531-283-R-J2-PDC and 782815-120-R-J1-PDC lines were cultured in 6C/Colon 1B media, which includes advanced DMEM/F-12 (Thermo Fisher Scientific, cat. 12634028), 10 mM HEPES (Thermo Fisher Scientific, cat. 15630080), 1X GlutaMAX supplement (Thermo Fisher Scientific, cat. 35050061), 0.1 mg/mL primocin (InvivoGen, San Diego, CA, cat. ant-pm-2), 10% defined fetal bovine serum, heat inactivated (HyClone Laboratories Inc., Logan, UT, cat. SH30070.03HI), 50% L-WRN conditioned media (ATCC, cat. CRL-3276), 1.25 mM N-Acetyl-L-cysteine (Sigma-Aldrich, cat. A9165), 10 mM nicotinamide (Sigma-Aldrich, cat. N0636), 1X B-27 supplement (Thermo Fisher Scientific, cat. 17504044), 1X N-2 supplement (Thermo Fisher Scientific, cat. 17502048), 50 ng/mL human EGF (Thermo Fisher Scientific, cat. PHG0311), and 10 microM Y-27632 dihydrochloride (Tocris Bioscience, cat. 1254). The K12877-001-R-J1-PDC line was cultured in 6I media, which includes all 6C/Colon 1B media plus 10 ng/mL human FGF-10 (PeproTech, cat. 100-26), 1 ng/mL human FGF-2 (PeproTech, cat. 100-18B), 1 µM prostaglandin E2 (Tocris Bioscience, cat. 2296), […] hydrocortisone (Sigma-Aldrich, cat. H4001), and […] bovine insulin (Sigma-Aldrich, cat. I6634). The K86415-001-R-J1-PDC line was cultured in 6D media, which includes all 6C/Colon 1B media components minus the L-WRN conditioned media. The 485176-168-R4-J1-PDC was cultured in PANC media, which includes all 6C/Colon 1B media plus 100 ng/mL human FGF-10 (PeproTech, cat. 100-26), 500 nM SB-431542 (Selleckchem, cat. S1067), and 10 nM gastrin (Tocris Bioscience, cat. 3006). […]

[1] = second compound 0.0316 µM, first compound 0.0316 µM
[2] = second compound 0.0316 µM, first compound 0.1 µM
[3] = second compound 0.0316 µM, first compound 0.316 µM
[4] = second compound 0.0316 µM, first compound 1 µM
[5] = second compound 0.1 µM, first compound 0.0316 µM
[6] = second compound 0.1 µM, first compound 0.1 µM
[7] = second compound 0.1 µM, first compound 0.316 µM
[8] = second compound 0.1 µM, first compound 1 µM
[9] = second compound 0.316 µM, first compound 0.0316 µM
[10] = second compound 0.316 µM, first compound 0.1 µM
[11] = second compound 0.316 µM, first compound 0.316 µM
[12] = second compound 0.316 µM, first compound 1 µM
[13] = second compound 1 µM, first compound 0.0316 µM
[14] = second compound 1 µM, first compound 0.1 µM
[15] = second compound 1 µM, first compound 0.316 µM
[16] = second compound 1 µM, first compound 1 µM
[17] = second compound 3.16 µM, first compound 0.0316 µM
[18] = second compound 3.16 µM, first compound 0.1 µM
[19] = second compound 3.16 µM, first compound 0.316 µM
[20] = second compound 3.16 µM, first compound 1 µM
[21] = second compound 10 µM, first compound 0.0316 µM
[22] = second compound 10 µM, first compound 0.1 µM
[23] = second compound 10 µM, first compound 0.316 µM
[24] = second compound 10 µM, first compound 1 µM
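Also: viability read after seven days of drug exposure.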
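For viability, T/C in this document: 100% = DMSO vehicle control viability.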

IC50 (second compound 0.0316 µM): 346 nM | IC50 (second compound 0.1 µM): 402 nM | IC50 (second compound 0.316 µM): 240 nM | IC50 (second compound 1 µM): 165 nM | IC50 (second compound 3.16 µM): 50.7 nM | IC50 (second compound 10 µM): < 3.16 nM
Structure (SMILES): C=CC(=O)Nc1cc(Nc2nccc(-c3cn(C)c4ccccc34)n2)c(OC)cc1N(C)CCN(C)C + C#Cc1c(F)ccc2cc(O)cc(-c3ncc4c(N5CC6CCC(C5)N6)nc(OCC56CCCN5CC(F)C6)nc4c3F)c12
viability, T/C (second compound 0.0316 µM, first compound 0.00316 µM): 99.4% | viability, T/C (second compound 0.0316 µM, first compound 0.01 µM): 92.1% | viability, T/C [1]: 92.3% | viability, T/C [2]: 69.6% | viability, T/C [3]: 53.1% | viability, T/C [4]: 31.5% | viability, T/C (second compound 0.1 µM, first compound 0.00316 µM): 93.1% | viability, T/C (second compound 0.1 µM, first compound 0.01 µM): 100% | viability, T/C [5]: 80.9% | viability, T/C [6]: 69.9% | viability, T/C [7]: 58.6% | viability, T/C [8]: 29.2% | viability, T/C (second compound 0.316 µM, first compound 0.00316 µM): 95.8% | viability, T/C (second compound 0.316 µM, first compound 0.01 µM): 81% | viability, T/C [9]: 77.8% | viability, T/C [10]: 61.5% | viability, T/C [11]: 48.1% | viability, T/C [12]: 27.6% | viability, T/C (second compound 1 µM, first compound 0.00316 µM): 72.6% | viability, T/C (second compound 1 µM, first compound 0.01 µM): 79.7% | viability, T/C [13]: 68.9% | viability, T/C [14]: 59% | viability, T/C [15]: 38.7% | viability, T/C [16]: 23% | viability, T/C (second compound 3.16 µM, first compound 0.00316 µM): 57.7% | viability, T/C (second compound 3.16 µM, first compound 0.01 µM): 55.1% | viability, T/C [17]: 56.6% | viability, T/C [18]: 42.6% | viability, T/C [19]: 30.6% | viability, T/C [20]: 20% | viability, T/C (second compound 10 µM, first compound 0.00316 µM): 39.4% | viability, T/C (second compound 10 µM, first compound 0.01 µM): 41.5% | viability, T/C [21]: 37.3% | viability, T/C [22]: 32.4% | viability, T/C [23]: 25.8% | viability, T/C [24]: 15.7%

IC50 (second compound 0.0316 µM): > 10000 nM | IC50 (second compound 0.1 µM): > 10000 nM | IC50 (second compound 0.316 µM): > 10000 nM | IC50 (second compound 1 µM): > 10000 nM | IC50 (second compound 3.16 µM): 773 nM | IC50 (second compound 10 µM): < 31.6 nM
Structure (SMILES): CC(C)NCC(C(=O)N1CCN(c2ncnc3c2C(C)CC3O)CC1)c1ccc(Cl)cc1 (centres undefined) + C#Cc1c(F)ccc2cc(O)cc(-c3ncc4c(N5CC6CCC(C5)N6)nc(OCC56CCCN5CC(F)C6)nc4c3F)c12
viability, T/C [1]: 111% | viability, T/C [2]: 92.8% | viability, T/C [3]: 89.6% | viability, T/C [4]: 84% | viability, T/C (second compound 0.0316 µM, first compound 3.16 µM): 89.6% | viability, T/C (second compound 0.0316 µM, first compound 10 µM): 103% | viability, T/C [5]: 92.6% | viability, T/C [6]: 78.7% | viability, T/C [7]: 83.7% | viability, T/C [8]: 71% | viability, T/C (second compound 0.1 µM, first compound 3.16 µM): 94.8% | viability, T/C (second compound 0.1 µM, first compound 10 µM): 92.3% | viability, T/C [9]: 83.7% | viability, T/C [10]: 85.8% | viability, T/C [11]: 82.7% | viability, T/C [12]: 73.3% | viability, T/C (second compound 0.316 µM, first compound 3.16 µM): 76.6% | viability, T/C (second compound 0.316 µM, first compound 10 µM): 82.2% | viability, T/C [13]: 66.2% | viability, T/C [14]: 60.2% | viability, T/C [15]: 60.3% | viability, T/C [16]: 60.9% | viability, T/C (second compound 1 µM, first compound 3.16 µM): 67.2% | viability, T/C (second compound 1 µM, first compound 10 µM): 60.3% | viability, T/C [17]: 59.6% | viability, T/C [18]: 65.5% | viability, T/C [19]: 48.7% | viability, T/C [20]: 46.3% | viability, T/C (second compound 3.16 µM, first compound 3.16 µM): 48.5% | viability, T/C (second compound 3.16 µM, first compound 10 µM): 39.2% | viability, T/C [21]: 33.6% | viability, T/C [22]: 44.1% | viability, T/C [23]: 34.4% | viability, T/C [24]: 32.3% | viability, T/C (second compound 10 µM, first compound 3.16 µM): 26.1% | viability, T/C (second compound 10 µM, first compound 10 µM): 18.7%
